Data from article PMC8071358, “Targeting of the Essential acpP, ftsZ, and rne Genes in Carbapenem-Resistant Acinetobacter baumannii by Antisense PNA Precision Antibacterials” (Biomedicines, 2021).
{(KFF)3K-eg1} = H-(KFF)3K peptide (K lysine, F phenylalanine) with eg1 linker (8-amino-3,6-dioxaoctanoyl), on the PNA N terminus (5' end); {(kff)3k-eg1} = D-form (kff)3k peptide with eg1 linker (8-amino-3,6-dioxaoctanoyl), on the PNA N terminus; {(R-Ahx-R)4-Ahx} = H-(R-Ahx-R)4-Ahx peptide (R arginine, Ahx 6-aminohexanoyl), on the PNA N terminus; {NH2} = C-terminal amide

How the values were obtained:
Assay in all cases: BPP-PNA MIC, broth microdilution
Assay type in all cases: cell-based, Acinetobacter baumannii
A. baumannii ATCC 19606 = settings: 37 °C, 18 h
Procedure: (§1) MIC values were determined by broth microdilution according to standard protocols with a few modifications. An overnight bacterial cell culture was diluted to approximately 5 × 10^5 CFU/mL in non-cation-adjusted Muller Hinton Broth (MHB). Then, 180 µL bacterial solutions were dispensed into a low-bind 96-well plate (Thermo-Scientific, Roskilde, Denmark) along with 20 µL of BPP-PNA compound (BPP-PNA was serially diluted 2-fold from 16 to 0.5 µM in a 96-well plate). The plate was incubated in a Tecan Genios plate reader (GMI, Minnesota, Ramsey, USA) at 37 °C for 18 h with linear shaking, OD was measured every 20 min at 595 nm. […] The minimum bactericidal concentration (MBC) values were determined by plating 10 µL samples from the wells with no visible turbidity onto Mueller–Hinton agar plates. The MBC is determined the lowest concentration of BPP-PNA that reduces the viability of the initial bacterial inoculum by ≥99.9% (3-log reduction in CFU/mL). A minimum of two independent experiments (biological replicates) of the assay were conducted, and two technical replicates were used in each experiment for each bacterium, compound, and concentration.

CRAB strain AC2 = tested on: CRAB strain AC2
Procedure: as §1

CRAB strain AC44 = tested on: CRAB strain AC44
Procedure: as §1

A. baumannii SSI1104 = tested on: A. baumannii SSI1104
Procedure: as §1, with “An overnight bacterial cell culture was diluted to approximately 5 × 10^5 CFU/mL in non-cation-adjusted Muller Hinton Broth (MHB).” left out

CRAB strain AC46 = tested on: CRAB strain AC46
Procedure: as §1, with “An overnight bacterial cell culture was diluted to approximately 5 × 10^5 CFU/mL in non-cation-adjusted Muller Hinton Broth (MHB).” left out

[1] = Table 4 (anti-rne), brand of medium not given, non-cation-adjusted MHB by method
[2] = MHB without cation (Oxoid), 37 °C, 18 h
[3] = Sigma MHB medium without cation, ~5 × 10^5 CFU/mL, OD595 < 0.1
[4] = Sigma MHB medium without cation, 37 °C, 18 h

| Substance | MIC, ATCC 19606 (A. baumannii ATCC 19606; [1]) [µM] | MIC, AC2 (CRAB strain AC2; [1]) [µM] | MIC, AC44 (CRAB strain AC44; [1]) [µM] | MIC, ATCC 19606 (A. baumannii ATCC 19606; MHB without cation (Oxoid)) [µM] | MIC, AC44 (CRAB strain AC44; [2]) [µM] | other results |
| --- | --- | --- | --- | --- | --- | --- |
| H-(KFF)3K-eg1-ATACGTTTCAT-NH2 (all peptide nucleic acid (PNA), 5' {(KFF)3K-eg1}, 3' {NH2}) [PNA 5654, anti-rne peptide-PNA conjugate, match, +1 to +11] | 2 | 2 | 1 |  |  | MIC, SSI 1104 (A. baumannii SSI1104; [1]): 2 µM; MIC, AC46 (CRAB strain AC46; [1]): 2 µM |
| H-(KFF)3K-eg1-ATCCGTTTAAT-NH2 (all peptide nucleic acid (PNA), 5' {(KFF)3K-eg1}, 3' {NH2}) [PNA 5821, anti-rne mismatch control of 5654] | 4 | 2 | 1 |  |  | MIC, SSI 1104 (A. baumannii SSI1104; [1]): 2 µM; MIC, AC46 (CRAB strain AC46; [1]): 2 µM |
| H-(KFF)3K-eg1-ATGAGGCCATG-NH2 (all peptide nucleic acid (PNA), 5' {(KFF)3K-eg1}, 3' {NH2}) [PNA 5657, anti-ftsZ peptide-PNA conjugate, match, −1 to +10] |  |  |  | >16 | 16 |  |
| H-(KFF)3K-eg1-GGCCATGACCT-NH2 (N-terminal (KFF)3K-eg1 peptide, C-terminal amide, backbone not given here, further chemistry not given here) [PNA 5658, anti-ftsZ peptide-PNA conjugate, match, −5 to +6] |  |  |  | 4 | 8 | MIC, SSI 1104 (A. baumannii SSI1104; [2]): 8 µM |
| H-(KFF)3K-eg1-GTTTCATGGGT-NH2 (all peptide nucleic acid (PNA), 5' {(KFF)3K-eg1}, 3' {NH2}) [PNA 5655, anti-rne peptide-PNA conjugate, match, −4 to +7] | 4 | 8 | 8 |  |  |  |
| H-(R-Ahx-R)4-Ahx-GAGTCCAGGAC-NH2 (all peptide nucleic acid (PNA), 5' {(R-Ahx-R)4-Ahx}, 3' {NH2}) [PNA 5616, anti-ftsZ (R-Ahx-R)4-Ahx-PNA, mismatch] |  |  |  | >16 | >16 |  |
| H-(kff)3k -eg1-TGACTTGTCAC-NH2 (all peptide nucleic acid (PNA), 5' {(kff)3k-eg1}, 3' {NH2}) [PNA 5824, anti-acpP PNA with D-form peptide, mismatch] |  |  |  |  |  | MIC, ATCC 19606 (A. baumannii ATCC 19606; [3]): 8 µM; MIC, AC2 (CRAB strain AC2; [4]): 8 µM; MIC, AC44 (CRAB strain AC44; [4]): 4 µM; MIC, SSI 1104 (A. baumannii SSI1104; [4]): 8 µM; MIC, AC46 (CRAB strain AC46; [4]): 4 µM |
| H-(kff)3k-eg1-TGATTTGCCAC-NH2 (all peptide nucleic acid (PNA), 5' {(kff)3k-eg1}, 3' {NH2}) [PNA 5823, anti-acpP PNA with D-form peptide, match] |  |  |  |  |  | MIC, ATCC 19606 (A. baumannii ATCC 19606; [3]): 4 µM; MIC, AC2 (CRAB strain AC2; [4]): 4 µM; MIC, AC44 (CRAB strain AC44; [4]): 4 µM; MIC, SSI 1104 (A. baumannii SSI1104; [4]): 4 µM; MIC, AC46 (CRAB strain AC46; [4]): 4 µM |
